From ChEMBL document CHEMBL4609981, “Discovery of novel nonpeptide small-molecule NRP1 antagonists: Virtual screening, molecular simulation and structural modification” (Bioorg Med Chem, 2020)
Calls of active or inactive are those of the source. The calls are words filed in the database; no cut-off is given here.

Experiments:
Neuropilin-1 [1] = target: T1, Neuropilin-1 (Homo sapiens, UniProt O14786); experiment: (§1) Inhibition of recombinant human biotinylated VEGF-165A expressed in HEK293 cells binding to immobilized recombinant full length human FC-tagged NRP1 (chimera active) expressed in HEK293 cells at 50 uM using TMB as substrate incubated for 2 hrs followed by substrate addition by competitive ELISA relative to control
T1 sequence (O14786 whole entry): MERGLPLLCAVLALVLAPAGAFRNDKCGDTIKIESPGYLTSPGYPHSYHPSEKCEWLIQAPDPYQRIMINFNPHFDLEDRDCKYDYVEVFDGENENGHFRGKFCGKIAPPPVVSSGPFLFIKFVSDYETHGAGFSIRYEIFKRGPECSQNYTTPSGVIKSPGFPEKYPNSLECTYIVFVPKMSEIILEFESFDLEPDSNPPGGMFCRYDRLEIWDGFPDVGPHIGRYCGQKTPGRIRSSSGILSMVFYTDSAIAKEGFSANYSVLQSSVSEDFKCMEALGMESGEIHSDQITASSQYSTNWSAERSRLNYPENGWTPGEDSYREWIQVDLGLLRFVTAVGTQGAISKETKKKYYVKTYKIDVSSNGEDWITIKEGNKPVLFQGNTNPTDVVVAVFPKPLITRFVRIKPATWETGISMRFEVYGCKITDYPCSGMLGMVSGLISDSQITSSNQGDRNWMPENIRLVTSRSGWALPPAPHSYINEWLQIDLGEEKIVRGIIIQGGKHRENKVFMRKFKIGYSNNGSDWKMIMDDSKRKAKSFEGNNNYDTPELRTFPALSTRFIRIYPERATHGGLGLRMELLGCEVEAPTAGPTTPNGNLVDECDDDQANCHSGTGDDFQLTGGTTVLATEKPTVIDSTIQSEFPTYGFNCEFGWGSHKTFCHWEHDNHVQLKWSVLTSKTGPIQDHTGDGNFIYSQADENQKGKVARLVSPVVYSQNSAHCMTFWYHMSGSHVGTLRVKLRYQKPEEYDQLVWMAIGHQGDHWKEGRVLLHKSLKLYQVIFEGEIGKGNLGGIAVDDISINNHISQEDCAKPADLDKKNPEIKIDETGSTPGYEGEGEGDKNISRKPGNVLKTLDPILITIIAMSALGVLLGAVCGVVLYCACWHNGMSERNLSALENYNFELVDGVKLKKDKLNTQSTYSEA

Neuropilin-1 [2] = target: T1, Neuropilin-1; experiment: Inhibition of biotinylated VEGF-165A binding to NRP1 (unknown origin) at 10 uM measured after 2 hrs chemiluminescence analysis relative to control
Neuropilin-1 [3] = target: T1, Neuropilin-1; experiment: Inhibition of recombinant human biotinylated VEGF-165A expressed in HEK293 cells binding to immobilized recombinant full length human FC-tagged NRP1 (chimera active) expressed in HEK293 cells using TMB as substrate incubated for 2 hrs followed by substrate addition by competitive ELISA
Neuropilin-1 [4] = target: T1, Neuropilin-1; experiment: as §1, with “11” for “50”
[5] = target: Vascular endothelial growth factor receptor 2 (Homo sapiens) (UniProt P35968); experiment: Inhibition of recombinant human biotinylated VEGF-165A expressed in HEK293 cells binding to FC-tagged VEGFR2 (unknown origin) using TMB as substrate incubated for 2 hrs followed by substrate addition by competitive ELISA
Sequence of Vascular endothelial growth factor receptor 2 (Homo sapiens) (P35968 whole entry): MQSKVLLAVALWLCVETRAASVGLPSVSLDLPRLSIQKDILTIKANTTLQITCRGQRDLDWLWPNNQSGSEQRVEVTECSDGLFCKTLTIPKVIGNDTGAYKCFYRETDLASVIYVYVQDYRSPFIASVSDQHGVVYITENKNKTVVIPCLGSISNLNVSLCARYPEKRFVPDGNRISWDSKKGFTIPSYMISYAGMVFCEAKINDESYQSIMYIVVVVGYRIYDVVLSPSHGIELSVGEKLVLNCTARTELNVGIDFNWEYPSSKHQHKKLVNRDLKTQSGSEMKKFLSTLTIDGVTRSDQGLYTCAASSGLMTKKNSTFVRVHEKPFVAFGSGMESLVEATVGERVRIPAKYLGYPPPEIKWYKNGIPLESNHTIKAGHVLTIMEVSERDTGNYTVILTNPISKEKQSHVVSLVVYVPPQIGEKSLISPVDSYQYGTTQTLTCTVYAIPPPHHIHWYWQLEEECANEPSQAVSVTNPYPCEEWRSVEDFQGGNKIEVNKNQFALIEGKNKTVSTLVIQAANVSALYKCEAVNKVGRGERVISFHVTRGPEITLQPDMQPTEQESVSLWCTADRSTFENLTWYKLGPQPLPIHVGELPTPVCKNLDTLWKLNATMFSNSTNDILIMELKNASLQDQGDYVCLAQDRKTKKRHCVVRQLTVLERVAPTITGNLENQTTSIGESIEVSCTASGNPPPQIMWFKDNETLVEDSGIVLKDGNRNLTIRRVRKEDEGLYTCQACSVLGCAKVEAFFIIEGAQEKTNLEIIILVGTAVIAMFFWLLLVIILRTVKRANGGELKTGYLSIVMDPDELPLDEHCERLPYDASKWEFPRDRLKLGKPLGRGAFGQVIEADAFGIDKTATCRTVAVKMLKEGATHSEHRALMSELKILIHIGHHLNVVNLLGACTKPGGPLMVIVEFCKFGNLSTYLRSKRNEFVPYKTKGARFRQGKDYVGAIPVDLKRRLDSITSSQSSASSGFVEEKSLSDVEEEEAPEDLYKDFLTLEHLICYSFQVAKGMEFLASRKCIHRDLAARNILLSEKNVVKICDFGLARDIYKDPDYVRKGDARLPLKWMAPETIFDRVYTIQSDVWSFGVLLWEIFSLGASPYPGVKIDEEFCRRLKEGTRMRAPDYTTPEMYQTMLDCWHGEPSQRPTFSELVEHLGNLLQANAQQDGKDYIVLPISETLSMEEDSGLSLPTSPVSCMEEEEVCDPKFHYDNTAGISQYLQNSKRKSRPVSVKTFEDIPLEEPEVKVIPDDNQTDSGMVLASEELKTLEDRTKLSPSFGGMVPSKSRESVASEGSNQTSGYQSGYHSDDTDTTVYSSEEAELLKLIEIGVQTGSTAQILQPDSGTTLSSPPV

Neuropilin-1 [6] = target: T1, Neuropilin-1; experiment: Inhibition of biotinylated […] binding to NRP1 (unknown origin) measured after 2 hrs chemiluminescence analysis

## CCc1nnc(NC(=O)CSc2nnc(-c3ccccc3)n2-c2ccccc2Cl)s1
Neuropilin-1 [1]
  inhibition: 5.3%

## Cc1cccc(-n2c(SCC(=O)Nc3nnc(C)s3)nnc2-c2ccccc2)c1
Neuropilin-1 [1]
  inhibition: 31.5%

## CCOc1ccccc1NC(=O)c1ccc(C)c(S(=O)(=O)Nc2ccc(C)cc2)c1
Neuropilin-1 [2]
  inhibition: 32%

## CCc1nnc(NC(=O)CSc2nncn2-c2cccc(Cl)c2)s1
Neuropilin-1 [1]
  inhibition: 0%

## N=C(N)NCCC[C@H](NC(=O)c1sccc1NS(=O)(=O)c1cccc2nsnc12)C(=O)O
Neuropilin-1 [3]
  IC50: 11.1 to 12.7 µM
Neuropilin-1 [4]
  inhibition: 49.1 to 49.8%
[5]
  inhibition: Active

## O=C(CSc1nnc(-c2ccccc2)n1-c1cccc(Cl)c1)Nc1nccs1
Neuropilin-1 [1]
  inhibition: 4%

## CCc1nnc(NC(=O)CSc2nnc(-c3ccccc3)[nH]2)s1
Neuropilin-1 [1]
  inhibition: 2.1%

## COCc1nnc(NC(=O)CSc2nnc(-c3ccccc3)n2-c2cccc(C)c2)s1
Neuropilin-1 [1]
  inhibition: 10.3%

## CCc1nnc(NC(=O)CSc2nnc(-c3ccccc3)n2-c2cccc(F)c2)s1
Neuropilin-1 [1]
  inhibition: 6%

## CCc1nnc(NC(=O)CSc2nnc(-c3ccccc3)n2-c2cccc(OC)c2)s1
Neuropilin-1 [1]
  inhibition: 0%

## CCc1nnc(NC(=O)CSc2nnc(-c3cccc(C)c3)n2-c2cccc(C)c2)s1
Neuropilin-1 [1]
  inhibition: 12.6%

## CCc1nnc(NC(=O)CSc2nnc(-c3ccc(O)cc3)n2-c2cccc(C)c2)s1
Neuropilin-1 [3]
  IC50: 41.7 µM
Neuropilin-1 [1]
  inhibition: 59.9%

## CCCc1nnc(NC(=O)CSc2nnc(-c3ccccc3)n2-c2cccc(C)c2)s1
Neuropilin-1 [1]
  inhibition: 47.8%

## CCc1nnc(NC(=O)CSc2nnc(-c3ccc(C)cc3)n2-c2cccc(C)c2)s1
Neuropilin-1 [3]
  IC50: 19.1 µM
Neuropilin-1 [1]
  inhibition: 76%
[5]
  inhibition: Active

## CCc1nnc(NC(=O)CSc2nnc(-c3ccccc3)n2-c2ccccc2)s1
Neuropilin-1 [1]
  inhibition: 4.8%

## CCc1nnc(NC(=O)CSc2nnc(-c3ccccc3)n2-c2cccnc2)s1
Neuropilin-1 [1]
  inhibition: 0%

## CCc1nnc(NC(=O)CSc2nnc(-c3ccccc3)n2-c2cccc(C)c2)s1
Neuropilin-1 [3]
  IC50: 41.1 µM
Neuropilin-1 [1]
  inhibition: 66.6%

## O=C(CSc1nnc(-c2ccccc2)n1-c1cccc(Cl)c1)Nc1nncs1
Neuropilin-1 [1]
  inhibition: 20.3%

## CCc1nnc(NC(=O)CSc2nnc(Cc3ccccc3)n2-c2cccc(C)c2)s1
Neuropilin-1 [1]
  inhibition: 4.3%

## CCc1nnc(NC(=O)CSc2nnc(-c3ccc(Cl)cc3)n2-c2cccc(C)c2)s1
Neuropilin-1 [1]
  inhibition: 37.4%

## CCc1nnc(NC(=O)CSc2nnc(-c3ccccc3)n2-c2ccc(Cl)cc2)s1
Neuropilin-1 [1]
  inhibition: 3.2%

## CCc1nnc(NC(=O)CSc2nnc(-c3ccccc3)n2Cc2cccc(C)c2)s1
Neuropilin-1 [1]
  inhibition: 4.1%

## CCc1nnc(NC(=O)CSc2nnc(-c3ccc(N)cc3)n2-c2cccc(C)c2)s1
Neuropilin-1 [1]
  inhibition: 15.4%

## CCc1nnc(NC(=O)CSc2nnc(-c3cccnc3)n2-c2cccc(C)c2)s1
Neuropilin-1 [1]
  inhibition: 0%

## O=C(CSc1nnc(-c2ccccc2)n1-c1cccc(Cl)c1)Nc1nnc(C2CC2)s1
Neuropilin-1 [1]
  inhibition: 22.5%

## Cc1ccc(-c2nc3ccccc3[nH]2)cc1NC(=S)NC(=O)c1ccc2c(c1)OCCO2
Neuropilin-1 [6]
  IC50: 34 µM

## CCc1nnc(NC(=O)CSc2nnc(-c3ccccc3)n2-c2cccc(Cl)c2)s1
Neuropilin-1 [1]
  inhibition: 47.6%
